Results from US6818774B2, “Isoquinoline derivatives” (priority 2002, dated 2004).
Where two headings read alike, the source gives them in different places.

Columns and labels:
human MAO-B = target: T1, human MAO-B (Homo sapiens, UniProt P27338); assay: MAO-B enzymatic activity, spectrophotometric assay (tyramine, Amplex Red) on membranes of transfected EBNA cells; type: biochemical
T1 construct: expressed in transfected cells; host or cells: EBNA cells (transient transfection); cell membranes used
T1 sequence (P27338 1-520): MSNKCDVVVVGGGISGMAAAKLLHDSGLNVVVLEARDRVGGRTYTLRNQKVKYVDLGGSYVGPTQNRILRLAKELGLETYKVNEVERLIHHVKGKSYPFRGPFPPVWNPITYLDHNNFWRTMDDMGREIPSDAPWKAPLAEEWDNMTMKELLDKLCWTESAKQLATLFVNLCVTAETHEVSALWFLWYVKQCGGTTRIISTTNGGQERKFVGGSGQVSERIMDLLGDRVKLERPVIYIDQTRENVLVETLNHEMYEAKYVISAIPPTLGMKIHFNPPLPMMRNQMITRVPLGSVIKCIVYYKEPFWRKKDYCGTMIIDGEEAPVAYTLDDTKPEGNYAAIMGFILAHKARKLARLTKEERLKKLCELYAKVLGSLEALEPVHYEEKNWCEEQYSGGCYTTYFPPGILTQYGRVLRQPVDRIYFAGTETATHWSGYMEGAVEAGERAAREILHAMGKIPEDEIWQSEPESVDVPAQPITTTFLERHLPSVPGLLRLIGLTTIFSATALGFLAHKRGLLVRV
Procedure: The cDNA's encoding human MAO-A and MAO-B were transiently transfected into EBNA cells using the procedure described by E.-J. Schlaeger and K. Christensen (Transient Gene Expression in Mammalian Cells Grown in Serum-free Suspension Culture; Cytotechnology, 15: 1-13, 1998). After transfection, cells were homogenised by means of a Polytron homogenizer in 20 mM Tris HCl buffer, pH 8.0, containing 0.5 mM EGTA and 0.5 mM phenylmethanesulfonyl fluoride. Cell membranes were obtained by centrifugation at 45,000×g and, after two rinsing step with 20 mM Tris HCl buffer, pH 8.0, containing 0.5 mM EGTA, membranes were eventually re-suspended in the above buffer and aliquots stored at −80° C. until use.
(§1) MAO-A and MAO-B enzymatic activity was assayed in 96-well-plates using a spectrophotometric assay adapted from the method described by M. Zhou and N. Panchuk-Voloshina (A One-Step Fluorometric Method for the Continuous Measurement of Monoamine Oxidase Activity, Analytical Biochemistry, 253: 169174, 1997). Briefly, membrane aliquots were incubated in 0.1 M potassium phosphate buffer, pH 7.4, for 30 min at 37° C. with or without various concentrations of the compounds. After this period, the enzymatic reaction was started by the addition of the MAO substrate tyramine together with 1 U/ml horse-radish peroxidase (Roche Biochemicals) and 80 μM N-acetyl-3,7,-dihydroxyphenoxazine (Amplex Red, Molecular Probes). The samples were further incubated for 30 min at 37° C. in a final volume of 200 μl and absorbance was then determined at a wavelength of 570 nm using a SpectraMax plate reader (Molecular Devices). Background (non-specific) absorbance was determined in the presence of 10 μM clorgyline for MAO-A or 10 μM L-deprenyl for MAO-B.
IC50 values, that is, the concentration of a test compound according to the invention required to inhibit the MAO-B enzyme activity by 50%, were determined from inhibition curves obtained using nine inhibitor concentrations in duplicate, by fitting data to a four parameter logistic equation using a computer program.

human MAO-A = target: T2, human MAO-A (Homo sapiens, UniProt P21397); assay: MAO-A enzymatic activity, spectrophotometric assay (tyramine, Amplex Red) on membranes of transfected EBNA cells; type: biochemical
T2 construct: expressed in transfected cells; host or cells: EBNA cells (transient transfection); cell membranes used
Procedure: After transfection, cells were homogenised by means of a Polytron homogenizer in 20 mM Tris HCl buffer, pH 8.0, containing 0.5 mM EGTA and 0.5 mM phenylmethanesulfonyl fluoride. Cell membranes were obtained by centrifugation at 45,000×g and, after two rinsing step with 20 mM Tris HCl buffer, pH 8.0, containing 0.5 mM EGTA, membranes were eventually re-suspended in the above buffer and aliquots stored at −80° C. until use.
as §1, with “Briefly,” for “MAO-A and MAO-B enzymatic activity was assayed in 96-well-plates using a spectrophotometric assay adapted from the method described by M. Zhou and N. Panchuk-Voloshina (A One-Step Fluorometric Method for the Continuous Measurement of Monoamine Oxidase Activity, Analytical Biochemistry, 253: 169174, 1997). Briefly,”

[1] = membranes, 30 min preincubation at 37° C., pH 7.4, substrate tyramine, read-out: IC50 MAO-A

T2 sequence (P21397 whole entry): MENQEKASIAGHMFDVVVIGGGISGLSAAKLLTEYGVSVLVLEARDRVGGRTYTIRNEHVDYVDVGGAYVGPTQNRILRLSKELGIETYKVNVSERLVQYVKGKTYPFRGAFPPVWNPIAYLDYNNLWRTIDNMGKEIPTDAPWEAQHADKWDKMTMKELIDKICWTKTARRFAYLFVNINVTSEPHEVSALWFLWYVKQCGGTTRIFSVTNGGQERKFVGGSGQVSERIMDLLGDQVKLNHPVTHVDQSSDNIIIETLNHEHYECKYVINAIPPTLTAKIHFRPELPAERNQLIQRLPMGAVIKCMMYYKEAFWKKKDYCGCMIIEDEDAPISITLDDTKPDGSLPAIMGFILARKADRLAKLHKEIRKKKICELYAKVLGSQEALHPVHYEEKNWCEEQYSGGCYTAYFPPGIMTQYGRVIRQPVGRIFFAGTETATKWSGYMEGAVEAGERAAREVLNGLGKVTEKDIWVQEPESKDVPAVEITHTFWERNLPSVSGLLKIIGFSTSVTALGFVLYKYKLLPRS

| SMILES | IC50 (human MAO-B) [nM] | IC50 (human MAO-A; [1]) [nM] | IC50 (human MAO-A) [nM] |
| --- | --- | --- | --- |
| CC(C(N)=O)N1CCc2cc(OCc3cccc(F)c3)ccc2C1=O (racemic) [Example 7, 2-[6-(3-Fluoro-benzyloxy)-1-oxo-3,4-dihydro-1H-isoquinolin-2-yl]-propionamide] | 12 | > 10000 |  |
| O=C1NCCc2cc(OCc3cccc(F)c3)ccc21 [Example 1, 6-(3-Fluoro-benzyloxy)-3,4-dihydro-2H-isoquinolin-1-one] | 104 | 5240 |  |
| NC(=O)CN1CCc2cc(OCc3cccc(F)c3)ccc2C1=O [Example 6, 2-[6-(3-Fluoro-benzyloxy)-1-oxo-3,4-dihydro-1H-isoquinolin-2-yl]-acetamide] | 8 | 330 |  |
| CC(CO)N1CCc2cc(OCc3cccc(F)c3)ccc2C1=O (stereo not shown) [Example 8, 6-(3-Fluoro-benzyloxy)-2-(2-hydroxy-1-methyl-ethyl)-3,4-dihydro-2H-isoquinolin-1-one] | 74 | > 10000 |  |
| N#CCN1CCc2cc(OCc3cccc(F)c3)ccc2C1=O [Example 12, [6-(3-Fluoro-benzyloxy)-1-oxo-3,4-dihydro-1H-isoquinolin-2-yl]-acetonitrile] | 154 |  |  |
| COCC(C)N1CCc2cc(OCc3cccc(F)c3)ccc2C1=O (stereo not shown) [Example 14, 6-(3-Fluoro-benzyloxy)-2-(2-methoxy-1-methyl-ethyl)-3,4-dihydro-2H-isoquinolin-1-one] | 63 |  | 4220 |
| NC(=O)CCN1CCc2cc(OCc3cccc(F)c3)ccc2C1=O [Example 19, 3-[6 (3-Fluoro-benzyloxy)-1-oxo-3,4-dihydro-1H-isoquinolin-2-yl]-propionamide] | 392 |  |  |
| C[C@H](C(N)=O)N1CCc2cc(OCc3ccc(F)cc3)ccc2C1=O [Example 20, 2-(R)-[6-(4-Fluoro-benzyloxy)-1-oxo-3,4-dihydro-1H-isoquinolin-2-yl]-propionamide] | 12 |  | > 10000 |
| C[C@@H](C(N)=O)N1CCc2cc(OCc3ccc(F)cc3)ccc2C1=O [Example 21, 2(S)-[6-(4-Fluoro-benzyloxy)-1-oxo-3,4-dihydro-1H-isoquinolin-2-yl]-propionamide] | 18 |  | > 10000 |
| NC(=O)[C@H](CO)N1CCc2cc(OCc3ccc(F)cc3)ccc2C1=O [Example 22, 2(S)-[6(4-Fluoro-benzyloxy)-1-oxo-3,4-dihydro-1H-isoquinolin-2-yl]-3-hydroxy-propionamide] | 20 |  | > 10000 |
| CC(C)(C(N)=O)N1CCc2cc(OCc3ccc(F)cc3)ccc2C1=O [Example 30, 2-[6-(4-Fluoro-benzyloxy)-1-oxo-3,4-dihydro-1H-isoquinolin-2-yl]-isobutyramide] | 1130 |  |  |
